# From ChEMBL document CHEMBL5236635, “Structure-Based Drug Design and Synthesis of Novel N-Aryl-2,4-bithiazole-2-amine CYP1B1-Selective Inhibitors in Overcoming Taxol Resistance in A549 Cells” (J Med Chem, 2022)
# Active and inactive are the calls of the source. No cut-off for these calls is given here.
# What was measured:
# A549/TR [1] = assay: Synergistic antiproliferative activity against human A549/Taxol cells assessed as increase in taxol by measuring combination index at 30 uM incubated for 72 hrs in presence of 0.13 uM taxol by MTT assay; type: functional
# A549/TR [2] = assay: Upregulation of E-cadherin expression level in human A549/Taxol cells at 2.5 to 10 uM incubated for 24 hrs by densitometry analysis; type: functional, cell-based; conditions: dose 2.5-10 µM
# A549/TR [3] = assay: Reversal of taxol resistance in human A549/Taxol cells assessed as suppression of P-gp expression level at 2.5 to 10 uM incubated for 20 mins by multimode plate reader analysis; type: functional, cell-based; conditions: dose 2.5-10 µM
# A549/TR [4] = assay: Synergistic antiproliferative activity against human A549/Taxol cells assessed as increase in taxol by measuring combination index at 15 uM incubated for 72 hrs in presence of 0.13 uM taxol by MTT assay; type: functional
# A549/Taxol [5] = assay: Inhibition of AKT pathway in human A549/Taxol cells assessed as decrease in phosphorylated AKT level at 2.5 to 5 uM incubated for 24 hrs; type: cell-based; conditions: dose 2.5-5 µM
# A549/TR [6] = assay: Synergistic antiproliferative activity against human A549/Taxol cells assessed as increase in taxol by measuring combination index at 3.75 uM incubated for 72 hrs in presence of 0.13 uM taxol by MTT assay; type: functional
# Cytochrome P450 1B1 = biological target: T1, Cytochrome P450 1B1 (Homo sapiens, UniProt Q16678); assay: Inhibition of recombinant human CYP1B1 using 7-ethyl-0-resorufin as substrate incubated for 30 mins in presence of NADPH by EROD assay
# T1 sequence (Q16678 whole entry): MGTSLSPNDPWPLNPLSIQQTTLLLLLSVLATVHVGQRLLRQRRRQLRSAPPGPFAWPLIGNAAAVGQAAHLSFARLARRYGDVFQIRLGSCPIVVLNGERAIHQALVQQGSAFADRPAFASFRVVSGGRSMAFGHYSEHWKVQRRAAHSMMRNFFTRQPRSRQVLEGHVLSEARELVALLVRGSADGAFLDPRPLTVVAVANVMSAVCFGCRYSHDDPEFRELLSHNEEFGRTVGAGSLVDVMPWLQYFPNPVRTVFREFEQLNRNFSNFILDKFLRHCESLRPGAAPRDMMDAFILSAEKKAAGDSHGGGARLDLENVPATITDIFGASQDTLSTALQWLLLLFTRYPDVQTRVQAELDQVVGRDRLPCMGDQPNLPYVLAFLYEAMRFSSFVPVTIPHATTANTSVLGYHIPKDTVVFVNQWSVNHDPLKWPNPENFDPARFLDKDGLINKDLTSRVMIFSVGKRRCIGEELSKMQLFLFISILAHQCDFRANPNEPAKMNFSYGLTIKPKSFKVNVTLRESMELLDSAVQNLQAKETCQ
# A549/TR [7] = assay: Synergistic antiproliferative activity against human A549/Taxol cells assessed as increase in taxol by measuring combination index at 7.50 uM incubated for 72 hrs in presence of 0.13 uM taxol by MTT assay; type: functional; conditions: dose 7.5 µM
# A549/TR [8] = assay: Synergistic antiproliferative activity against human A549/Taxol cells assessed as increase in taxol by measuring combination index at 15 uM incubated for 72 hrs in presence of 1 uM taxol by MTT assay; type: functional
# A549/TR [9] = assay: Synergistic antiproliferative activity against human A549/Taxol cells assessed as increase in taxol by measuring combination index at 7.50 uM incubated for 72 hrs in presence of 1 uM taxol by MTT assay; type: functional; conditions: dose 7.5 µM
# A549/TR [10] = assay: Synergistic antiproliferative activity against human A549/Taxol cells assessed as increase in taxol by measuring combination index at 30 uM incubated for 72 hrs in presence of 1 uM taxol by MTT assay; type: functional
# A549/TR [11] = assay: Synergistic antiproliferative activity against human A549/Taxol cells assessed as increase in taxol by measuring combination index at 3.75 uM incubated for 72 hrs in presence of 0.50 uM taxol by MTT assay; type: functional
# A549/TR [12] = assay: Reversal of taxol resistance human A549/Taxol cells assessed as increase in sensitivity at 5 uM incubated for 72 hrs by MTT assay; type: functional, cell-based
# A549 [13] = assay: Inhibition of DMBA-induced CYP1B1 overexpression in human A549 cells assessed as effect on MMP-9 level at 5 uM incubated for 24 hrs by densitometry analysis; type: functional, cell-based
# NCI-H460 [14] = assay: Upregulation of DMBA-induced CYP1B1 expression level in human NCI-H460 cells at 5 uM incubated for 24 hrs; type: functional, cell-based
# A549 [15] = assay: Inhibition of DMBA-induced CYP1B1 overexpression in human A549 cells assessed as increase in Vimentin level incubated for 24 hrs by densitometry analysis; type: functional, cell-based; conditions: dose 5.0 µM
# A549 [16] = assay: Antiproliferative activity against human taxol resistance human A549 cells assessed as reduction in cell viability incubated for 24 hrs by MTT assay; type: functional, cell-based; conditions: dose 5.0 µM
# A549 [17] = assay: Inhibition of DMBA-induced cell migration in human A549 cells incubated for 48 hrs by inverted microscopic analysis; type: functional, cell-based; conditions: dose 5.0 µM
# A549 [18] = assay: Inhibition of DMBA-induced AKT overexpression in human taxol resistance A549 cells incubated for 24 hrs; type: functional, cell-based; conditions: dose 5.0 µM
# A549 [19] = assay: Downregulation of DMBA-induced CYP1B1 expression level in human A549 cells at 5 uM incubated for 24 hrs; type: functional, cell-based
# A549 [20] = assay: Inhibition of DMBA-induced CYP1B1 overexpression in human A549 cells assessed as decrease in Vimentin level at 5 uM incubated for 24 hrs by densitometry analysis; type: functional, cell-based
# NCI-H460 [21] = assay: Inhibition of DMBA-induced AKT overexpression in human taxol resistance NCI-H460 cells incubated for 24 hrs; type: functional, cell-based; conditions: dose 5.0 µM
# A549/Taxol [22] = assay: Inhibition of AKT pathway in human A549/Taxol cells assessed as decrease in phosphorylated AKT level at 5 uM incubated for 24 hrs; type: cell-based
# NCI-H460 [23] = assay: Inhibition of DMBA-induced CYP1B1 overexpression in human NCI-H460 cells assessed as increase in Paxillin level incubated for 24 hrs by densitometry analysis; type: functional, cell-based; conditions: dose 5.0 µM
# NCI-H460 [24] = assay: Inhibition of DMBA-induced CYP1B1 expression level in human NCI-H460 cells at 5 uM incubated for 24 hrs; type: functional, cell-based
# A549 [25] = assay: Upregulation of DMBA-induced CYP1B1 expression level in human A549 cells incubated for 24 hrs; type: functional, cell-based; conditions: dose 1-10 µM
# A549 [26] = assay: Inhibition of DMBA-induced ERK1/2 overexpression in human taxol resistance A549 cells at 5 uM incubated for 24 hrs; type: functional, cell-based
# A549 [27] = assay: Inhibition of DMBA-induced CYP1B1 overexpression in human A549 cells assessed as increase in SRC level at 5 uM incubated for 24 hrs by densitometry analysis; type: functional, cell-based
# A549 [28] = assay: Inhibition of DMBA-induced CYP1B1 overexpression in human A549 cells assessed as effect on E-cadherin level at 5 uM incubated for 24 hrs by densitometry analysis; type: functional, cell-based
# [29] = biological target: Focal adhesion kinase 1 (Homo sapiens) (UniProt Q05397); assay: Inhibition of FAK pathway in human A549/Taxol cells assessed as decrease in phosphorylated FAK level at 5 uM incubated for 24 hrs; type: cell-based
# A549 [30] = assay: Inhibition of DMBA-induced CYP1B1 overexpression in human A549 cells assessed as supression of FAK pathway at 5 uM incubated for 24 hrs by densitometry analysis; type: functional, cell-based
# Sequence of Focal adhesion kinase 1 (Homo sapiens) (Q05397 2-1052 limits assumed): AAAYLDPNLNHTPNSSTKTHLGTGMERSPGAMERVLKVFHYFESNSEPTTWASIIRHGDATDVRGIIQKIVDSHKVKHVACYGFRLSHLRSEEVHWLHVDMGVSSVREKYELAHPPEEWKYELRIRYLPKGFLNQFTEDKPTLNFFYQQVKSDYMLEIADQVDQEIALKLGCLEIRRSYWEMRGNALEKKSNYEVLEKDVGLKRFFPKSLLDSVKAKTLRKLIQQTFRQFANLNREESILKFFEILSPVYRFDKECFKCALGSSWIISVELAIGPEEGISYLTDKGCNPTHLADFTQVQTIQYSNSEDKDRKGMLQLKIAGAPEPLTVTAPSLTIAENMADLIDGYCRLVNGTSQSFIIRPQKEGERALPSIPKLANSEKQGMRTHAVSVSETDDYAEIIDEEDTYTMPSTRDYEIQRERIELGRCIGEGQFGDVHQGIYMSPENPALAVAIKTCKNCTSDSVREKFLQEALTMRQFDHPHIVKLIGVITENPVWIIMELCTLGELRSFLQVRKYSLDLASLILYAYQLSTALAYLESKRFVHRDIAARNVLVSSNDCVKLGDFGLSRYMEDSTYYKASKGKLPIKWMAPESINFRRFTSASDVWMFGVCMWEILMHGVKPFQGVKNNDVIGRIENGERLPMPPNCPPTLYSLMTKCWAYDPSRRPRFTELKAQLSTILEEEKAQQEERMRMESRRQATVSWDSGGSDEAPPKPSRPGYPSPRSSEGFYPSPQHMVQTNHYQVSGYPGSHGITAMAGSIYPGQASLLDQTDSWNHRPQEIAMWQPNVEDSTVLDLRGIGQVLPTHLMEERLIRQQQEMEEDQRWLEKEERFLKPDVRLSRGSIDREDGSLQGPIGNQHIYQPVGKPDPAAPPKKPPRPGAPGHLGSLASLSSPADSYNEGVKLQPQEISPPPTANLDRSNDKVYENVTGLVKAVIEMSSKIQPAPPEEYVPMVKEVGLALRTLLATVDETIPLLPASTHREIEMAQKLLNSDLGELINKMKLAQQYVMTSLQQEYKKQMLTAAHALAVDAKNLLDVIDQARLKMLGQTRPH
smiles,measurement,setting,value
COc1cc(Nc2nc(-c3nc(-c4ccccc4F)cs3)cs2)cc(OC)c1,CI,A549/TR [1],0.11
same,Activity,A549/TR [2],Active
same,Activity,A549/TR [3],Active
same,CI,A549/TR [4],0.22
same,inhibition,A549/Taxol [5],Active
same,CI,A549/TR [6],0.55
same,IC50,Cytochrome P450 1B1,6.6 nM
same,CI,A549/TR [7],0.31
same,CI,A549/TR [8],0.71
same,CI,A549/TR [9],1.36
same,CI,A549/TR [10],0.02
same,CI,A549/TR [11],0.98
same,Activity,A549/TR [12],Active
COc1cc(/C=C/c2ccc(OC)cc2OC)cc(OC)c1,inhibition,A549 [13],inactive
same,Activity,NCI-H460 [14],inactive
same,inhibition,A549 [15],Dose-Dependent Effect
same,Activity,A549 [16],Dose-Dependent Effect
same,inhibition,A549 [17],Dose-Dependent Effect
same,inhibition,A549 [18],Dose-Dependent Effect
same,Activity,A549 [19],inactive
same,inhibition,A549 [20],inactive
same,inhibition,NCI-H460 [21],Dose-Dependent Effect
same,inhibition,A549/Taxol [22],Active
same,inhibition,NCI-H460 [23],Dose-Dependent Effect
same,inhibition,NCI-H460 [24],Active
same,Activity,A549 [25],Dose-Dependent Effect
same,inhibition,A549 [26],Active
same,inhibition,A549 [27],inactive
same,inhibition,A549 [28],inactive
same,inhibition,[29],Active
same,inhibition,A549 [30],Active
